Here are results for 8 compounds from patent US11952364B2, “TRK inhibitors useful as anticancer drugs” (TYLIGAND BIOSCIENCE (SHANGHAI) LIMITED, priority 2018, dated 2024).

As a reminder, the IC50 is the midpoint of a concentration-inhibition curve. A lower IC50 goes with higher potency.

This test has as its system Ba/F3 LMNA-NTRK1-G595R cells. Description: Proliferation of Ba/F3 LMNA-NTRK1-G595R cells (CellTiter-Glo). The format is cell-based. The note with it: Mus musculus, BaF3; Table 5; 72 hours. The source says: Ba/F3 LMNA-NTRK1-G595R is a stable transgenic cell line constructed by KYinno Biotechnology Co., Ltd. on mouse primary B cell Ba/F3 wherein NTRK1 is highly expressed with a mutation of G at position 595 to R, and fused with LMNA to form LMNA-NTRK1. • [Test method]: Promega's CellTiter-Glo® Luminescent Cell Viability Assay kit was used to evaluate the inhibitory activity of the compounds on the proliferation of Ba/F3 LMNA-NTRK1-G595R cells. • [Instrument]: Spectramax M3 multifunctional microplate reader from Molecular Devices. • [Test materials]: Ba/F3 LMNA-NTRK1-G595R cell line (constructed by KYinno Biotechnology Co., Ltd. (Beijing)), 96-well transparent flat-bottomed black-walled cell culture plate (Corning, cat #3603), RPMI-1640 media (GE, cat #SH30027.01), fetal bovine serum FBS (Thermo Fisher, cat #10099-141), CellTiter-Glo® Luminescent Cell Viability Assay kit (Promega, cat #G7572), PBS (Solarbio, cat #P1020), DMSO (Sigma, cat #D2650). • [Experimental procedure]: When resuscitating Ba/F3 LMNA-NTRK1-G595R cells, the freezing tube was quickly shaken in a 37° C. water bath to melt within 1 minute. The thawed cell suspension was mixed uniformly with RPMI1640 medium containing 10% FBS, centrifuged at 1000 rpm for 5 minutes, and the supernatant discarded. 5 mL of complete medium (RPMI1640 medium with 10% FBS) was taken to resuspend the cell pellets, charged into a cell culture flask with a bottom area of 25 cm^2, and incubated in a cell incubator at 37° C., 95% humidity and 5% CO2. Cells were allowed to passage when the number of cells reached about 10^6 cells/mL. For cell passage, the old cell suspension was directly pipetted evenly, 1/5 of the cell suspension was kept, 4 mL of new complete medium was added, after pipetting evenly, the cell flask was placed in the cell incubator for further culturing. Cell plating was performed when the number of cells reached about 10^6 cells/mL again. For cell plating, 1/5 of the cell suspension was kept for further culturing as in the cell passage method, and the remaining 4/5 of the cell suspension was placed in a 15 mL centrifuge tube, detected for cell viability by Trypan blue exclusion method to ensure that cell viability was above 90%. A cell suspension with a density of 5.56×10^4 viable cells/mL was prepared with complete medium, and 90 μL of such cell suspension was added to a 96-well cell culture plate to obtain the cell density of 5000 viable cells/mL in the cell culture plate. A control group containing no cells, no compound and only complete medium (i.e. culture medium control) and a control group containing no compound but containing cells (i.e. cell control) were set. The cell plate was placed in a cell incubator overnight. The 10 mM compound stock solution in DMSO was first serially diluted with DMSO at a dilution factor of 3.16 times, to obtain 9 concentrations, and the 10th concentration was set as DMSO control without compound. Then, PBS was used to dilute the DMSO solutions of compounds of different concentrations, at a dilution factor of 100 times, so that the DMSO concentration in the compound solution of each concentration was 1%. Finally, 10 μL of each of the above solutions was added to the corresponding cell culture plate, so that the initial compound concentration was 10 μM, with the remaining concentrations being successively diluted at a dilution factor of 3.16 times, and the DMSO content in the cell culture plate was 0.1%. The cell plate was placed in a cell incubator and cultured for 72 hours. For endpoint detection, the CellTiter-Glo reagent was melted, and the cell plate was moved to room temperature to equilibrate for 30 minutes, added with 100 μL of CellTiter-Glo for each well, and shaken on an orbital shaker for 5 minutes to fully lyse the cells. The plate was kept at room temperature for 20 minutes to stabilize the luminescence signal, and the luminescence value of each well was scanned with a multi-functional microplate reader at full wavelength. • [Test samples] […]
The compound `Cn1ncc2cc(Oc3ccc(NC(=O)c4ccc(C(F)(F)F)n(-c5ccc(F)cc5)c4=O)cc3F)c(-c3cn[nH]c3)cc21` [Example 1, N-(3-fluoro-4-(1-methyl-6-(1H-pyrazol-4-yl)-1H-indazol-5-yloxy)phenyl)-1-(4-fluorophenyl)-6-trifluoromethyl-2-oxo-1,2-dihydmpyridine-3-carboxamide monomethanesulfonate] showed an IC50 of 1440 nM.
Next, `Cn1ncc2cc(Oc3ccc(NC(=O)c4ccc(C5CC5)n(-c5ccc(F)cc5)c4=O)cc3F)c(-c3cn[nH]c3)cc21` [Example 2, N-(3-fluoro-4-(1-methyl-6-(1H-pyrazol-4-yl)-1H-indazol-5-yloxy)phenyl)-1-(4-fluorophenyl)-6-cyclopropyl-2-oxo-1,2-dihydmpyridine-3-carboxamide]: 752 nM.
Next, `CCn1ncc2cc(Oc3ccc(NC(=O)c4ccc(C)n(-c5ccc(F)cc5)c4=O)cc3F)c(-c3cn[nH]c3)cc21` [Example 3, N-(3-fluoro-4-(1-ethyl-6-(1H-pyrazol-4-yl)-1H-indazol-5-yloxy)phenyl)-1-(4-fluorophenyl)-6-methyl-2-oxo-1,2-dihydmpyridine-3-carboxamide]: 3150 nM; `Cc1ccc(C(=O)Nc2ccc(Oc3cc4cnn(C(C)C)c4cc3-c3cn[nH]c3)c(F)c2)c(=O)n1-c1ccc(F)cc1` [Example 4, N-(3-fluoro-4-(1-isopropyl-6-(1H-pyrazol-4-yl)-1H-indazol-5-yloxy)phenyl)-1-(4-fluorophenyl)-6-methyl-2-oxo-1,2-dihydmpyridine-3-carboxamide]: 4650 nM; `CCc1ccc(C(=O)Nc2ccc(Oc3cc4cnn(C)c4cc3-c3cn[nH]c3)c(F)c2)c(=O)n1-c1ccc(F)cc1` [Example 5, N-(3-fluoro-4-(1-methyl-6-(1H-pyrazol-4-yl)-1H-indazol-5-yloxy)phenyl)-1-(4-fluorophenyl)-6-ethyl-2-oxo-1,2-dihydropyridine-3-carboxamide]: 799 nM.
As for `CC(C)c1ccc(C(=O)Nc2ccc(Oc3cc4cnn(C)c4cc3-c3cn[nH]c3)c(F)c2)c(=O)n1-c1ccc(F)cc1` [Example 6, N-(3-fluoro-4-(1-methyl-6-(1H-pyrazol-4-yl)-1H-indazol-5-yloxy)phenyl)-1-(4-fluorophenyl)-6-isopropyl-2-oxo-1,2-dihydropyridine-3-carboxamide], the IC50 was 747 nM. This IC50 and that of the compound before are within 1.5-fold of each other.
Turning to `O=C(Nc1cnn2ccc(N3CCC[C@@H]3c3cc(F)ccc3F)nc12)N1CC[C@H](O)C1` [LOXO-101, Larotrectinib, reference compound], the IC50 came to 3660 nM.
Regarding `Cc1ccc(C(=O)Nc2ccc(Oc3cc4cnn(C)c4cc3-c3cn[nH]c3)c(F)c2)c(=O)n1-c1ccc(F)cc1` [Merestinib, reference compound], the midpoint of inhibition, the IC50, lay at 1010 nM.
